Assays:
[1] = test system: human stomach cancer cell line NCI-N87; assay: Combination (in vivo) of pyrimidine compound and capecitabine, NCI-N87 subcutaneous model
Procedure: Test Example 18 Combination (In Vivo) of Pyrimidine Compound and Capecitabine
A human stomach cancer cell line NCI-N87 was obtained from American Type Culture Collection (ATCC). The cell line was cultured in RPMI-1640 (containing 4.5 g/L glucose, 10 mM HEPES and 1 mM sodium pyruvate) (FUJIFILM Wako Pure Chemical Corporation) medium containing 10% fetal bovine serum (FBS) in a 5% CO2 incubator at 37° C.
The NCI-N87 cells were resuspended at a concentration of 8×10^7 cells/mL in PBS.
An aqueous solution containing 0.1 N HCl and 0.5% HPMC was used as a control.

EGFR [L858R] = molecular target: T1, EGFR [L858R] (Homo sapiens, UniProt P00533, L858R); assay: Phosphorylation activity inhibitory effect (in vitro) on mutant EGFR L858R; type: biochemical
T1 construct: purchased Carna Biosciences, Inc
T1 sequence (P00533 25-1210 L858R): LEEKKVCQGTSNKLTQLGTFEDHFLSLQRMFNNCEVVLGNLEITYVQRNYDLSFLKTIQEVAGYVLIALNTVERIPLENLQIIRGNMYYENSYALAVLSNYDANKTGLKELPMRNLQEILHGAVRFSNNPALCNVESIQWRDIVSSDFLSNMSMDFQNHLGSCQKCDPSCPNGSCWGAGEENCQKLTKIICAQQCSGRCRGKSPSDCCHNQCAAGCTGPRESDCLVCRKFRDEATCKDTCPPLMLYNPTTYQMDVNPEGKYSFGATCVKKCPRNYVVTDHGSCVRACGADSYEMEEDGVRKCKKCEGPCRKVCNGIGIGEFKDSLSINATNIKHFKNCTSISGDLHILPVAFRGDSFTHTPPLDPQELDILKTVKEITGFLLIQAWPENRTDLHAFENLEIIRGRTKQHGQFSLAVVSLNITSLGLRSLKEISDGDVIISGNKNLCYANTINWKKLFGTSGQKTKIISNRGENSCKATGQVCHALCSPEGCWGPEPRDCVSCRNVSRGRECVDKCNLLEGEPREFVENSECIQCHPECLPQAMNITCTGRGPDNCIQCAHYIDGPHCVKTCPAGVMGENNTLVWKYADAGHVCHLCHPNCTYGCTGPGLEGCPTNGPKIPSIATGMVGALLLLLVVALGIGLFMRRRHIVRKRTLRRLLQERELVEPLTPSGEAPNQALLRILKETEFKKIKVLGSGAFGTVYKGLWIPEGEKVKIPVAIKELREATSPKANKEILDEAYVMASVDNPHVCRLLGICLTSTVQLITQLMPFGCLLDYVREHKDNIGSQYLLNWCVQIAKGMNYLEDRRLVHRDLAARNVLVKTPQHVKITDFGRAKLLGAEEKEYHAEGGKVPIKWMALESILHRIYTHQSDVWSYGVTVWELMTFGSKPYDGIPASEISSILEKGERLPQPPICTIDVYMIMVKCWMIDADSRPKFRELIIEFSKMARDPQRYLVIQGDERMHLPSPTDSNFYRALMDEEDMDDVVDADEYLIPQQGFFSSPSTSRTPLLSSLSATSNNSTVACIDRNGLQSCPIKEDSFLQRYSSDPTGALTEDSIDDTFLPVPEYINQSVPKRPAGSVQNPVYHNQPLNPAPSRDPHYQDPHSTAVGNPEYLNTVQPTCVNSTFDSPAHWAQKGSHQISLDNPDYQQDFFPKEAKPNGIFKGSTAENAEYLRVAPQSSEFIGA
Procedure: Test Example 6 Measurement of Phosphorylation Activity Inhibitory Effect (In Vitro) on Wild-Type and Mutant EGFR
The measurement of the in vitro inhibitory activity of a compound against wild-type and mutant EGFR was outsourced to Carna Biosciences, Inc. (Kinase Profiling Book, https://www.carnabio.com/japanese/product/search.cgi?mode=profiling).
Specifically, first, the pyrimidine compound of the present invention was diluted stepwise with dimethyl sulfoxide (DMSO). […] To the reaction solution, Termination Buffer was added, so as to terminate the kinase reaction. Finally, using LabChip™ EZ Reader II (PerkinElmer), an unphosphorylated substrate peptide (S) and a phosphorylated peptide (P) were separated and detected according to microchannel capillary electrophoresis.
As the pyrimidine compound of the present invention, the compound of Example 11 (Example compound 11) was used.

[2] = test system: Human stomach cancer-derived tumor cells 4-1ST
Procedure: Human stomach cancer-derived tumor cells 4-1ST were obtained as fragment tumor from the Central Institute for Experimental Animals. Tumor was removed approximately 1 month after subcutaneous transplantation and passage in a 6 week old male nude mouse (BALB/cAJc1-nu/nu, CLEA Japan, Inc.), and a fragment of approximately 2 mm square was prepared. A transplantation needle was filled with one fragment and subcutaneously inserted from around the right last rib of each nude mouse so as to enter the right back. The tumor was pushed out by pressing the inner syringe and thereby transplanted. For the measurement of the tumor size, electronic calipers were used. […] A tumor volume (TV) was calculated from this major axis and minor axis. A relative tumor volume change percentage (T/C) was calculated from the calculated tumor volume. TV and T/C were calculated according to the following equations:
Tumor Volume (TV)(mm^3)=(Major axis,mm)×(Minor axis,mm)×(Minor axis,mm)/2
Relative tumor volume change percentage (T/C)(%)=(Mean TV of the administration group)/(Mean TV of a control group)×100
For the measurement of the body weight, an animal electronic balance was used. A body weight change percentage on the n^th day (BWCn) from the body weight on 0th day (BW0) and the body weight on the n^th day (BWn) was calculated according to the following equation:
Body weight change percentage BWCn (%)=(BWn−BW0)/BW0×100
Nude mice having TV of 50 to 300 mm^3 were selected and assigned to groups each involving 6 animals by the equal number method [MiSTAT (ver. 2.1)] such that the means of TV were equal among the groups. […] An untreated group was used as a control.
The presence or absence of a combinatorial effect and toxicity was judged from the tumor sizes and the body weights on the grouping day (Day 0) and the judgement day (Day 15). During the administration period, the body weight was measured every day for calculation of the amount of the dosing solution.
An untreated group was used as a control.

[3] = day 15, Example 11 6.25 mg/kg/day, day 1-14, p.o.
[4] = Day 15, Example 11 6.25 mg/kg/day, Days 1-14, po

SMILES: C=CC(=O)N1C[C@H](n2c(C#CC3CC3)c(C(=O)N[C@H](C)c3ccccc3)c3c(N)ncnc32)C[C@@H]1C [Example 11, 7-((3R,5S)-1-acryloyl-5-methylpyrrolidin-3-yl)-4-amino-6-(cyclopropylethynyl)-N—((R)-1-phenylethyl)-7H-pyrrolo[2,3-d]pyrimidine-5-carboxamide]
- Number of Death ([1]; Example 11 6.25 mg/kg/day, day 1-14, p.o.): 0
- TV on Day 15 versus control group (Dunnett's test) ([1]; capecitabine and Example 11 po once a day, Days 1-14): significantly lower TV
- T/C (%) [1, 3]: 47%
- Tumor volume (mm^3) day 15 Mean ± S.E. [1, 3]: 272.43 ± 22.22 mm^3
- BWC (%) Mean ± S.E. ([1]; mouse, in vivo, po, 6.25 mg/kg/day): 6.3 ± 0.9%
- IC50 (EGFR [L858R]): 360 pM
- BWC (%, Mean ± SE) [2, 4]: 4.0 ± 0.7%
- T/C (%) [2, 4]: 14.5%
- TV (mm^3, mean ± SE) [2, 4]: 233.6 ± 42.6 mm^3
- Number of Death ([2]; Example 11 6.25 mg/kg/day, Days 1-14, po): 0
- TV on Day 15 versus control group (Dunnett's test) ([2]; trastuzumab emtansine iv Day 1, Example 11 po Days 1-14): significantly lower TV

Reference: US20230255972A1, “PYRIMIDINE COMPOUND-CONTAINING COMBINATION TO BE USED IN TUMOR TREATMENT” (TAIHO PHARMACEUTICAL CO., LTD., priority 2020, published 2023)
